Patent publication US20090181968A1, “Novel 3-Bicyclocarbonylaminopyridine-2-Carboxamides or 3-Bicyclocarbonylaminopyrazine-2-Carboxamides” (priority 2005, published 2009)
Read-outs that look alike come from different tables or passages of the source.

Assays:
human CB1 receptor [1] = biological target: T1, human CB1 receptor (Homo sapiens, UniProt P21554); assay: hCB1 receptor binding (3H-CP55,940 displacement)
T1 construct: purchased Perkin-Elmer
Procedure: hCB1 and hCB2 Receptor Binding
Membranes are produced from either HEK 293S cells expressing the cloned human CB1 receptor (hCB1: clone #24) or Sf9 cells, using the baculovirus system, expressing the cloned human CB2 receptor (hCB2). The membranes are thawed at 37° C., passed 3 times through a 23-gauge blunt-end needle, diluted in the cannabinoid binding buffer (50 mM Tris, 2.5 mM EDTA, 5 mM MgCl2, and 0.5 mg/mL BSA fatty acid free, pH 7.4) and aliquots containing the appropriate amount of protein are distributed in 96-well plates. The IC50 of the compounds of the present invention at hCB1 and hCB2 are evaluated from 10-point dose-response curves done with ^3H-CP55,940 at 20000 to 25000 dpm per well (0.17-0.21 nM) in a final volume of 300 μl. The total and non-specific binding are determined in the absence and presence of 0.2 μM of HU210 respectively. The plates are vortexed and incubated for 60 minutes at room temperature, filtered through Unifilters GF/B (pre-soaked in 0.1% polyethyleneimine) with the Packard harvester using 3 mL of wash buffer (50 mM Tris, 5 mM MgCl2, 0.5 mg BSA pH 7.0). The filters are dried for 1 hour at 55° C. The radioactivity (cpm) is counted in a TopCount (Packard) after adding 65 μl/well of MS-20 scintillation liquid.
Based on the above assays, the dissociation constant (Ki) for a particular compound of the present invention towards a particular receptor is determined using the following equation: […]
wherein IC50 is the concentration of the compound of the present invention at which 50% displacement has been observed; [rad] is a standard or reference radioactive ligand concentration at that moment; Kd is the dissociation constant of the radioactive ligand towards the particular receptor.

human CB1 receptor [2] = biological target: T1, human CB1 receptor; assay: hCB1 GTPγS binding; assay type: biochemical; details: for Emax: read-out: Emax hCB1
Procedure: Cloned human CB1 receptor from Perkin-Elmer (hCB1) are thawed at 37° C., passed 3 times through a 23-gauge blunt-end needle and diluted in the GTPγS binding buffer (50 mM Hepes, 20 mM NaOH, 100 mM NaCl, 1 mM EDTA, 5 mM MgCl2, pH 7.4, 0.1% BSA). […] The basal and maximal stimulated binding is determined in absence and presence of 10 μM Win 55,212-2. The membranes are pre-incubated for 5 minutes with 112.5 μM GDP prior to distribution in plates (30 μM GDP final). The plates are vortexed and incubated for 60 minutes at room temperature, filtered on Unifilters GF/B (pre-soaked in water) with the Packard harvester using 3 ml of wash buffer (50 mM Tris, 5 mM MgCl2, 50 mM NaCl, pH 7.0). The filters are dried for 1 hour at 55° C. The radioactivity (cpm) is counted in a TopCount (Packard) after adding 65 μl/well of MS-20 scintillation liquid.

T1 sequence (P21554 whole entry): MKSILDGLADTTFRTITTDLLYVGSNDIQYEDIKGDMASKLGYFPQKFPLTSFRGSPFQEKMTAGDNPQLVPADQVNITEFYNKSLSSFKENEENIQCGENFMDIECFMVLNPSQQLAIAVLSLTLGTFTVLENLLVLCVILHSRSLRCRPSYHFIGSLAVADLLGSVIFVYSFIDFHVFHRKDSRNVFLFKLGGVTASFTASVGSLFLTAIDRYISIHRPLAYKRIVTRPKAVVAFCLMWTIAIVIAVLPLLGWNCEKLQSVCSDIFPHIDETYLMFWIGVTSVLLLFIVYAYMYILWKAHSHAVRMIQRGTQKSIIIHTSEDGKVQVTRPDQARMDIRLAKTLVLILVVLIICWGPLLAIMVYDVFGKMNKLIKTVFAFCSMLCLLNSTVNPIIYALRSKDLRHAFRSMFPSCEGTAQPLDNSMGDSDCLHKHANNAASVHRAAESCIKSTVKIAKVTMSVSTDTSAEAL

| Compound | Ki (human CB1 receptor [1]) [nM] | EC50 (human CB1 receptor [2]) [nM] | Emax (human CB1 receptor [2]) [%] | Ki (human CB1 receptor [1]; membranes of HEK 293S cells expressing cloned human CB1 receptor, Ki=IC50/(1+[rad]/Kd), read-out: Ki hCB1) [nM] | EC50 (human CB1 receptor [2]; GTPγ35S binding, cloned human CB1 receptor membranes, read-out: EC50 hCB1) [nM] |
| --- | --- | --- | --- | --- | --- |
| CN(C)C(=O)COc1ccc(NC(=O)c2ccc(Cn3ccnn3)c3ccccc23)c(C(=O)NCC2CCC2)n1 [Example 6, N-(cyclobutylmethyl)-6-[2-(dimethylamino)-2-oxoethoxy]-3-{[4-(1H-1,2,3-triazol-1-ylmethyl)-1-naphthoyl]amino}pyridine-2-carboxamide] | 52 | 80 | 88 |  |  |
| O=C(COc1ccc(NC(=O)c2ccc(Cn3ccnn3)c3ccccc23)c(C(=O)NCC2CCC2)n1)NCCO [Example 7, N-(cyclobutylmethyl)-6-{2-[(2-hydroxyethyl)amino]-2-oxoethoxy}-3-{[4-(1H-1,2,3-triazol-1-ylmethyl)-1-naphthoyl]amino}pyridine-2-carboxamide] | 59 | 120 | 110 |  |  |
| O=C(NCC1CCC1)c1nc(OCc2ccccn2)ccc1NC(=O)c1ccc(Cn2ccnn2)c2ccccc12 [Example 14, N-(cyclobutylmethyl)-6-(pyridin-2-ylmethoxy)-3-{[4-(1H-1,2,3-triazol-1-ylmethyl)-1-naphthoyl]amino}pyridine-2-carboxamide] | 3.2 | 7.3 | 110 |  |  |
| COCc1cnnn1Cc1ccc(C(=O)Nc2cccnc2C(=O)NCC2CCC2)c2ccccc12 [Example 15, N-(cyclobutylmethyl)-3-[(4-{[5-(methoxymethyl)-1H-1,2,3-triazol-1-yl]methyl}-1-naphthoyl)amino]pyridine-2-carboxamide] | 13 | 22 | 120 |  |  |
| O=C(COc1ccc(NC(=O)c2ccc(Cn3ccnn3)c3ccccc23)c(C(=O)NCC2CCC2)n1)NCc1ccccc1 [Example 27, 6-(Benzylcarbamoyl-methoxy)-3-[(4-[1,2,3]triazol-1-ylmethyl-naphthalene-1-carbonyl)-amino]-pyridine-2-carboxylic Acid Cyclobutylmethyl-amide] | 35 | 42 | 94 |  |  |
| CC(C)OC(=O)COc1ccc(NC(=O)c2ccc(Cn3ccnn3)c3ccccc23)c(C(=O)NCC2CCC2)n1 [Example 29, {6-(Cyclobutylmethyl-carbamoyl)-5-[(4-[1,2,3]triazol-1-ylmethyl-naphthalene-1-carbonyl)-amino]-pyridin-2-yloxy}-acetic Acid Isopropyl Ester] | 5.4 | 7.1 | 80 |  |  |
| COCc1ccc(C(=O)Nc2ccc(OCCO)nc2C(=O)NCC2CCOCC2)c2ccccc12 [Example 35, 6-(2-Hydroxy-ethoxy)-3-[(4-methoxymethyl-naphthalene-1-carbonyl)-amino]-pyridine-2-carboxylic Acid (tetrahydro-pyran-4-ylmethyl)-amide] | 53 | 99 | 93 |  |  |
| O=C(NCC1CCOCC1)c1nc(OS(=O)(=O)CCC(F)(F)F)cnc1NC(=O)c1ccc(Cn2ccnn2)c2ccccc12 [Example 44, 6-[(Tetrahydro-2H-pyran-4-ylmethyl)carbamoyl]-5-{[4-(1H-1,2,3-triazol-1-ylmethyl)-1-naphthoyl]amino}pyrazin-2-yl 3,3,3-trifluoropropane-1-sulfonate] | 270 | 240 | 140 |  |  |
| O=C(NCC1CCC1)c1ncccc1NC(=O)c1ccc(Cn2cc(F)nn2)c2ccccc12 [Example 50, N-(Cyclobutylmethyl)-3-({4-[(4-fluoro-1H-1,2,3-triazol-1-yl)methyl]-1-naphthoyl}amino)pyridine-2-carboxamide] | 51 | 46 | 48 |  |  |
| O=C(NCC1CCOCC1)c1ncccc1NC(=O)c1csc2ccccc12 [Example 56, 3-[(1-benzothien-3-yl-carbonyl)amino]-N-(tetrahydro-2H-pyran-4-ylmethyl)pyridine-2-carboxamide] |  |  | 88 | 260 | 380 |
